Each structure is given as a SMILES string. Values after ≈ are worked out from the molar mass of the structure shown.

This passage reports MIC results from ChEMBL document CHEMBL1833797, “Microwave assisted synthesis and antimicrobial evaluation of new fused pyran derivatives bearing 2-morpholinoquinoline nucleus” (2011).

The test system of one assay is Clostridium tetani. The experiment in a line: Antimicrobial activity against Clostridium tetani MTCC 449 for 24 hrs by microdilution method. It is filed as functional. The settings on record: MTCC 449, 24 h. On the technique in general: In broth dilution the organism is exposed to a series of concentrations in liquid medium.
For another assay, the system named is Escherichia coli. Briefly: Antimicrobial activity against Escherichia coli MTCC 443 for 24 hrs by microdilution method. It is filed as functional. The settings on record: MTCC 443, 24 h.
Another assay relates to Candida albicans. The experiment in a line: Antifungal activity against Candida albicans MTCC 227 for 48 hrs by microdilution method. The settings on record: MTCC 227, 48 h. It is filed as functional.
Another assay has as its system Streptococcus pneumoniae. Briefly: Antimicrobial activity against Streptococcus pneumoniae MTCC 1936 for 24 hrs by microdilution method. It is filed as functional. The settings on record: MTCC 1936, 24 h.
Another assay has as its system Salmonella typhi. Briefly: Antimicrobial activity against Salmonella typhi MTCC 98 for 24 hrs by microdilution method. It is filed as functional, Salmonella enterica subsp. enterica serovar Typhi. The conditions noted are these: Salmonella enterica, MTCC 98, 24 h.
Another assay concerns Aspergillus fumigatus. The experiment in a line: Antifungal activity against Aspergillus fumigatus MTCC 3008 for 48 hrs by microdilution method. The settings on record: MTCC 3008, 48 h. It is filed as functional.
Another assay concerns Vibrio cholerae. Briefly: Antimicrobial activity against Vibrio cholerae MTCC 3906 for 24 hrs by microdilution method. It is filed as functional. The settings on record: MTCC 3906, 24 h.
The test system of the next assay is Bacillus subtilis. Briefly: Antimicrobial activity against Bacillus subtilis MTCC 441 for 24 hrs by microdilution method. It is filed as functional. The settings on record: MTCC 441, 24 h.

Usually MIC stands for the lowest concentration that inhibits growth of the organism. A high value points to a need for much substance. For the molecule `COc1ccc2nc(N3CCOCC3)c(C3C(C#N)=C(N)OC4=C3C(=O)CC(C)(C)C4)cc2c1` (centres undefined), the MIC was determined as 500 µg/mL (≈ 1090 µM) with Clostridium tetani; 500 µg/mL (≈ 1090 µM) with Escherichia coli; 1000 µg/mL (≈ 2170 µM) against Candida albicans; 100 µg/mL (≈ 217 µM) in the assay with Streptococcus pneumoniae; 500 µg/mL (≈ 1090 µM) in the assay with Salmonella typhi; 100 µg/mL (≈ 217 µM) with Aspergillus fumigatus. Moreover, the MIC against Vibrio cholerae stood at 500 µg/mL (≈ 1090 µM); with Bacillus subtilis, 100 µg/mL (≈ 217 µM).
For the molecule `CC1(C)CC(=O)C2=C(C1)OC(N)=C(C#N)C2c1cc2ccccc2nc1N1CCOCC1` (centres undefined), the minimal inhibitory concentration (MIC) in the assay with Clostridium tetani was found to be 250 µg/mL (≈ 581 µM); with Escherichia coli, 250 µg/mL (≈ 581 µM); in the assay with Candida albicans, 500 µg/mL (≈ 1160 µM); with Streptococcus pneumoniae, 500 µg/mL (≈ 1160 µM); against Salmonella typhi it was 200 µg/mL (≈ 465 µM); against Aspergillus fumigatus, 1000 µg/mL (≈ 2320 µM). Moreover, the values for the MIC against Vibrio cholerae and with Bacillus subtilis were 250 µg/mL (≈ 581 µM) and 200 µg/mL (≈ 465 µM), respectively.
`COC1=CC(=O)C[C@@H](C)[C@]12Oc1c(Cl)c(OC)cc(OC)c1C2=O` [GRISEOFULVIN]: the results for the MIC with Candida albicans and in the assay with Aspergillus fumigatus were 500 µg/mL (≈ 1420 µM) and 100 µg/mL (≈ 283 µM), respectively.
Turning to `Cc1cc2c(c(=O)o1)C(c1cc3ccccc3nc1N1CCOCC1)C(C#N)=C(N)O2` (centres undefined), the MIC against Clostridium tetani turned out to be 100 µg/mL (≈ 240 µM); in the assay with Escherichia coli it was 62.5 µg/mL (≈ 150 µM); against Candida albicans, 1000 µg/mL (≈ 2400 µM); in the assay with Streptococcus pneumoniae it was 200 µg/mL (≈ 480 µM); against Salmonella typhi, 100 µg/mL (≈ 240 µM); in the assay on Aspergillus fumigatus, 200 µg/mL (≈ 480 µM). Moreover, the MIC in the assay on Vibrio cholerae was 100 µg/mL (≈ 240 µM); against Bacillus subtilis, 200 µg/mL (≈ 480 µM).
For the molecule `Cc1n[nH]c2c1C(c1cc3ccccc3nc1N1CCOCC1)C(C#N)=C(N)O2` (centres undefined), the MIC with Clostridium tetani was determined as 100 µg/mL (≈ 257 µM); in the assay on Escherichia coli it was 62.5 µg/mL (≈ 161 µM); in the assay with Candida albicans, 1000 µg/mL (≈ 2570 µM); against Streptococcus pneumoniae it was 250 µg/mL (≈ 644 µM); with Salmonella typhi it was 100 µg/mL (≈ 257 µM); in the assay with Aspergillus fumigatus, 1000 µg/mL (≈ 2570 µM). The MIC in the assay with Vibrio cholerae turned out to be 200 µg/mL (≈ 515 µM); with Bacillus subtilis, 250 µg/mL (≈ 644 µM).
Regarding `Cc1ccc2nc(N3CCOCC3)c(C3C(C#N)=C(N)Oc4[nH]nc(C)c43)cc2c1` (centres undefined), the MIC with Clostridium tetani was 250 µg/mL (≈ 621 µM); against Escherichia coli, 200 µg/mL (≈ 497 µM); against Candida albicans, 1000 µg/mL (≈ 2480 µM); against Streptococcus pneumoniae, 200 µg/mL (≈ 497 µM); in the assay on Salmonella typhi, 250 µg/mL (≈ 621 µM); in the assay with Aspergillus fumigatus it was 1000 µg/mL (≈ 2480 µM). For the same molecule, the MIC was 250 µg/mL (≈ 621 µM) against Vibrio cholerae and 200 µg/mL (≈ 497 µM) in the assay with Bacillus subtilis.
In the case of `N#CC1=C(N)Oc2c(ccc3ccccc23)C1c1cc2ccccc2nc1N1CCOCC1` (centres undefined), the MIC in the assay with Clostridium tetani is 250 µg/mL (≈ 575 µM); in the assay on Escherichia coli, 500 µg/mL (≈ 1150 µM); against Candida albicans, 500 µg/mL (≈ 1150 µM); in the assay with Streptococcus pneumoniae it was 500 µg/mL (≈ 1150 µM); with Salmonella typhi it was 500 µg/mL (≈ 1150 µM); against Aspergillus fumigatus, more than 1000 µg/mL. Further, the minimum inhibitory concentration (MIC) with Vibrio cholerae came out at 500 µg/mL (≈ 1150 µM); against Bacillus subtilis it was 250 µg/mL (≈ 575 µM).
`N#CC1=C(N)OC2=C(C(=O)CCC2)C1c1cc2ccccc2nc1N1CCOCC1` (centres undefined): the MIC in the assay with Clostridium tetani is 250 µg/mL (≈ 621 µM); with Escherichia coli, 250 µg/mL (≈ 621 µM); against Candida albicans it was 1000 µg/mL (≈ 2480 µM); in the assay on Streptococcus pneumoniae it was 100 µg/mL (≈ 248 µM); in the assay on Salmonella typhi, 250 µg/mL (≈ 621 µM); against Aspergillus fumigatus, more than 1000 µg/mL. The MIC against Vibrio cholerae came out at 250 µg/mL (≈ 621 µM); against Bacillus subtilis it was 100 µg/mL (≈ 248 µM).
For `Cc1ccc2nc(N3CCOCC3)c(C3C(C#N)=C(N)Oc4c3c(=O)oc3ccccc43)cc2c1` (centres undefined), the MIC is 250 µg/mL (≈ 536 µM) in the assay with Clostridium tetani; 250 µg/mL (≈ 536 µM) against Escherichia coli; 500 µg/mL (≈ 1070 µM) against Candida albicans; 500 µg/mL (≈ 1070 µM) against Streptococcus pneumoniae; 250 µg/mL (≈ 536 µM) against Salmonella typhi; 500 µg/mL (≈ 1070 µM) against Aspergillus fumigatus. For the same molecule, the MIC in the assay with Vibrio cholerae turned out to be 12.5 µg/mL (≈ 26.8 µM); with Bacillus subtilis it was 500 µg/mL (≈ 1070 µM).
Regarding `O=C(O)c1cn(C2CC2)c2cc(N3CCNCC3)c(F)cc2c1=O` [CIPROFLOXACIN], the MIC with Escherichia coli stood at 25 µg/mL (≈ 75.4 µM); against Streptococcus pneumoniae, 50 µg/mL (≈ 151 µM); in the assay with Salmonella typhi it was 25 µg/mL (≈ 75.4 µM); in the assay on Vibrio cholerae it was 25 µg/mL (≈ 75.4 µM).
For `COc1ccc2nc(N3CCOCC3)c(C3C(C#N)=C(N)OC4=C3C(=O)c3ccccc3C4=O)cc2c1` (centres undefined), the MIC with Clostridium tetani was 100 µg/mL (≈ 202 µM); in the assay on Escherichia coli it was 100 µg/mL (≈ 202 µM); in the assay with Candida albicans, more than 1000 µg/mL; in the assay with Streptococcus pneumoniae, 200 µg/mL (≈ 404 µM); in the assay on Salmonella typhi, 200 µg/mL (≈ 404 µM); in the assay with Aspergillus fumigatus it was 1000 µg/mL (≈ 2020 µM). Also, the MIC was determined as 250 µg/mL (≈ 506 µM) with Vibrio cholerae and 200 µg/mL (≈ 404 µM) against Bacillus subtilis.
In the case of `N#CC1=C(N)Oc2cc(O)ccc2C1c1cc2ccccc2nc1N1CCOCC1` (centres undefined), the MIC in the assay on Clostridium tetani was 250 µg/mL (≈ 624 µM); in the assay with Escherichia coli, 100 µg/mL (≈ 250 µM); against Candida albicans, 1000 µg/mL (≈ 2500 µM); in the assay with Streptococcus pneumoniae, 250 µg/mL (≈ 624 µM); against Salmonella typhi it was 200 µg/mL (≈ 499 µM); against Aspergillus fumigatus it was more than 1000 µg/mL. The MIC against Vibrio cholerae and against Bacillus subtilis was 250 µg/mL (≈ 624 µM) each time.
Take `COc1ccc2nc(N3CCOCC3)c(C3C(C#N)=C(N)OC4=C3C(=O)CCC4)cc2c1` (centres undefined): the MIC against Clostridium tetani came out at 500 µg/mL (≈ 1160 µM); against Escherichia coli, 200 µg/mL (≈ 462 µM); against Candida albicans, 500 µg/mL (≈ 1160 µM); against Streptococcus pneumoniae, 250 µg/mL (≈ 578 µM); in the assay on Salmonella typhi, 200 µg/mL (≈ 462 µM); in the assay on Aspergillus fumigatus, 1000 µg/mL (≈ 2310 µM). Besides, the MIC with Vibrio cholerae and in the assay on Bacillus subtilis was 250 µg/mL (≈ 578 µM) throughout.
